“Also recorded” adds a separate entry of the source.
What was measured:
E coli = experiment: Light-activated killing of bacteria (Example III-1); type: cell-based
Excerpt: No killing of bacteria in the dark has yet been observed.

E. coli [1] = experiment: Killing of E. coli suspended in solution under irradiation or dark incubation (Part IV); type: cell-based; details: for killing of E. coli / killing of E. coli at longer times: 1-10 μg/mL; for killing of E. coli: five minutes of irradiation; for killing of E. coli at longer times: longer than five minutes; for activity against E. coli in suspension in the dark: dark incubation
Excerpt: (§1) In the current study we have observed Compound E, Compound D, and Formula X in aqueous media with suspensions of E. coli and SARS-CoV-2 for Compound E and with suspensions of E. coli for Compound D and Formula X. We have also studied these oligomers as supported coatings on various supporting materials including wipe scaffolds, commercial Kimwipes, and proprietary materials from Diamond Wipes and HYDAC.

E. coli [2] = experiment: Killing of E. coli by compound coated on wet wipe surface or filter; type: cell-based
Excerpt: Compound E was applied to a wet wipe surface and also to the surface of a filter for filtration of air or water.
as §1

mammal models = details: in vivo
SARS-CoV-2 [3] = experiment: Compound E in solution: inactivation of SARS-CoV-2 under cool white light, plaque assay on Vero E6 cells; type: cell-based
SARS-CoV-2 [4] = experiment: Compound E-coated glass fiber filter: inactivation of SARS-CoV-2 under cool white light, plaque assay on Vero E6 cells; type: cell-based; details: for inactivation of the virus: coated on glass fiber, cool white
bacteria = experiment: Antibacterial activity of oligomer IX under visible light and in the dark; type: cell-based
SARS-CoV-2 [5] = type: cell-based; details: cool white; 30 minutes irradiation (earliest point)

Structure (SMILES): Cn1cc[n+](CCCOc2ccc(C#Cc3ccc(C#Cc4ccc(OCCC[n+]5ccn(C)c5)cc4)cc3)cc2)c1 [Compound D]
- relative reactivity (E coli): more reactive than Compound E
- anti-bacterial activity using LuzChem cool white light (E coli): excellent anti-bacterial activity
- killing of bacteria in the dark (E coli): No killing
- light-activated killing of bacteria (E coli): excellent light-activated killing
- killing of E. coli (E. coli [1]; near UV): ~99%
- killing of E. coli at longer times (E. coli [1]; near UV): complete killing
- activity against E. coli in suspension in the dark (E. coli [1]): neither compound showed any killing; also recorded: not under visible light or dark conditions
- activity against E. coli in suspension under near-UV (E. coli [1]): had activity
- activity against E. coli in suspension under visible light (E. coli [1]; visible light): not under visible light or dark conditions

Structure (SMILES): Cn1cc[n+](CCCOc2ccc(C#Cc3ccc(C#Cc4ccc(OCCC[n+]5ccn(C)c5)cc4)s3)cc2)c1 [Compound E]
- anti-bacterial activity using LuzChem cool white light (E coli): excellent anti-bacterial activity
- killing of bacteria in the dark (E coli): No killing
- light-activated killing of bacteria (E coli): excellent light-activated killing
- light-activated killing of E. coli on coated surface (E. coli [2]; applied to wet wipe surface and filter surface): strong light-activated killing
- activity against E. coli on a filter in the dark (E. coli [2]; dark conditions): not in dark conditions
- activity when coated surface immersed in suspension of E. coli (E. coli [2]; surface immersed in E. coli suspension): activity was retained
- activity against E. coli on a filter (E. coli [2]; visible light and near-UV): had activity
- toxicity against mammal models (mammal models): no toxicity
- killing of E. coli (E. coli [1]; visible light): ~99%
- killing of E. coli at longer times (E. coli [1]; visible light): complete killing
- activity against E. coli in suspension in the dark (E. coli [1]): neither compound showed any killing; also recorded: not in dark conditions
- activity against E. coli in suspension under near-UV (E. coli [1]): had activity
- activity against E. coli in suspension under visible light (E. coli [1]; visible light): had activity
- activity against SARS-Cov-2 in suspension in the dark (SARS-CoV-2 [3]; dark conditions): not in dark conditions
- inactivation of the virus (SARS-CoV-2 [3]; solution (10 μg/mL), cool white, 5 minutes of irradiation): > 95%
- inactivation at longer irradiation (SARS-CoV-2 [3]; solution, cool white, 10 minutes or longer): complete deactivation inactivation
- activity against SARS-Cov-2 in suspension (SARS-CoV-2 [3]; visible light and near-UV): had activity
- inactivation of the virus (SARS-CoV-2 [4]; 10 minutes irradiation): about 90%
- inactivation of the virus (SARS-CoV-2 [4]; 30 minutes): 3 log
- activity against SARS-Cov-2 on a filter (SARS-CoV-2 [4]; visible light and near-UV): had activity

Structure (SMILES): C[N+](C)(C)CCCOc1ccc(C#Cc2ccc(C#Cc3ccc(OCCC[N+](C)(C)C)cc3)cc2)cc1 [Formula IX]
- activity against bacteria in the dark (bacteria; dark): active against bacteria in the dark
- activity under visible light irradiation (bacteria; visible light): not active under visible light irradiation

Structure (SMILES): C[N+](C)(C)CCCOc1ccc(C#Cc2ccc(C#Cc3ccc(OCCC[N+](C)(C)C)cc3)s2)cc1 [Formula X]
- virus present (SARS-CoV-2 [5]): no virus present
- activity against E. coli in suspension in the dark (E. coli [1]): considerable dark reactivity; also recorded: had activity
- activity against E. coli in suspension under near-UV (E. coli [1]): activity under visible light and near-UV; also recorded: had activity
- activity against E. coli in suspension under visible light (E. coli [1]; visible light): activity under visible light and near-UV; also recorded: had activity
